Results published in PMC2905701, “Synthesis and Biological Evaluation of New CRH Analogues” (Bioinorganic Chemistry and Applications, 2010).
Non-standard residues stand in square brackets, D forms with d. No end group written: not given here. *: point of attachment. Aib = CC(C)(N)C(=O)O; Propyl = CCC*

Columns and labels:
CRH-1 receptor = target: T1, CRH-1 receptor (Homo sapiens, UniProt P34998); test: Binding affinity of h/r-CRH analogues to the CRH-1 receptor; details: averages from 3 experiments performed in duplicates
T1 sequence (P34998 24-415): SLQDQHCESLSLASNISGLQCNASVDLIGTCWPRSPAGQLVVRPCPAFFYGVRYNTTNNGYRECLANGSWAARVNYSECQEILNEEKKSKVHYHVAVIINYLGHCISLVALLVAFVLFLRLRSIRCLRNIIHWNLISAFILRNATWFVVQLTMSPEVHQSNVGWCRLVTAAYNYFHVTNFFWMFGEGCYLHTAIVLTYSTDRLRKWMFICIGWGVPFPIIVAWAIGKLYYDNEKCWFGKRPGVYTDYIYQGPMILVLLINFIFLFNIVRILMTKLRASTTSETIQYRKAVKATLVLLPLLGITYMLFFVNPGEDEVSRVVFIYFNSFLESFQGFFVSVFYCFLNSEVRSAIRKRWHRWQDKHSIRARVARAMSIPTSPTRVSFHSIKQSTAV

CRH-R1 = target: T2, CRH-R1 (Homo sapiens, UniProt P34998); test: Stimulation of cyclic AMP generation (CRE-luciferase activity) in LLC-PK1 cells cotransfected with CRH-R1 and CRE; type: cell-based; details: LLC-PK1 cells cotransfected with CRH-R1 and CRE cDNA; peptides 10^-6 to 10^-11 M, 7 hours at 37°C; luciferase read-out; maximum response compared to h/r-CRH; read-out: Biological activity: % Response max/CRH
T2 construct: expressed in transfected cells; host or cells: LLC-PK1 cells (electroporation)
T2 sequence (P34998 24-415): T1 sequence (P34998 24-415)
Description: The capacity of CRH and related peptide analogues to stimulate cyclic AMP generation was monitored in LLC-PK1 cells cotransfected with cDNA of CRH-R1 and CRE. For transfection the method of electroporation was applied and 40 millions of LLC-PK1 cells were prepared and washed in cytomix 1X transfection medium. The electroporation medium consisted of 1000 μL of cytomix 2X, 864 μL of sterilized water, 80 μL of ATP 50 mM, 3.2 mg of glutathion, 20 μg of CRH-R1 cDNA and 20 μg of CRE cDNA. 500 μL of the above solution were transferred in the electroporation device and after remaining for 10 minutes a standard growth medium was added (DMEM without phenol red with glutamine, antibiotics, and 10% FCS) to a total volume of 50 mL. The suspension was distributed in […] of 24 wells each, by adding 1 mL per well, and was allowed to pre-incubate for 24 hours. The growth medium was aspirated and replaced with fresh one followed by another preincubation for 24 hours. The cells were then challenged with graded concentrations (10^−6 to 10^−11 M) of the test peptides and incubated for 7 hours at 37°C. After that, the medium with the added peptides was removed, the cells were washed twice with PBS 1X, 100 μL of lysis buffer 1X per well were added, the plates were left at room temperature for 30 minutes and then stored at −80°C overnight. The luciferace activity was measured with the use of a luminometer after the addition of 50 μL of lysed cell preparation and 50 μL of bioluminescence medium per well in a 96 well plate luminometer.

[1] = times more potent than α-helical CRH; cited from earlier work
Source text: Introduction of D-amino acids leading to stabilization of β-turns, can provide analogues with increased potency but not all residues are susceptible to such an alteration, leading even to the opposite effect. However, the D-Phe^12 substitution has proven to be a favorable one especially combined with other advantageous modifications such as the replacement of Met at positions 21 and 38 with Nle.

Row | Substance | IC50 (CRH-1 receptor) | Emax (CRH-R1) | Potency relative to α-helical CRH [1]
1 | SEEPPISLDLT[dF]HLLREVLEMARAEQLAQQAHSNRKLC(Propyl)EII-NH2 [Analogue 4, [D-Phe^12, Cys(Pr)^38]CRH] | 35 nM | 60% | –
2 | [D-Phe^12, Nle^21, 38]CRH21-41 | – | – | 15 times
3 | [D-Phe^12]CRH | – | – | twice

Further lines, with some results ahead:

Row | IC50 (CRH-1 receptor) | Emax (CRH-R1) | Substance | Potency relative to α-helical CRH [1]
4 | 8.4 nM | 60% | SEEPPISLDLT[dF]HL[Aib]REVLEMARAEQLAQQAHSNRKLMEII-NH2 [Analogue 2, [D-Phe^12, Aib^15]CRH] | –
5 | 226 nM | 60% | SEEPPISLDLT[dF]H[Aib]LREVLEMARAEQLAQQAHSNRKLMEII-NH2 [Analogue 1, [D-Phe^12, Aib^14]CRH] | –
